Values joined by “and” are separate entries in the source; they are usually repeats but may differ in a detail not shown here. Equal entries are not always repeated.
How the values were obtained:
HFD-fed C57BL/6J mice [1] = assay: DIO mice: blood profiling (serum cholesterol, triglyceride); type: in vivo, mouse; settings: for Serum TG levels, Mean Diff. (Vehicle vs. treated) / Serum total cholesterol levels, Mean Diff. (Vehicle vs. treated) / Serum TG levels, group mean / Serum total cholesterol levels (CHO), group mean: DIO mice; for Serum TG levels, Mean Diff. (Vehicle vs. treated) / Serum total cholesterol levels, Mean Diff. (Vehicle vs. treated): Dunnett's multiple comparisons test; for Serum TG levels, group mean / Serum total cholesterol levels (CHO), group mean: PO
Method: Blood samples were obtained by cardiac puncture, and plasma was isolated. Blood profiling was performed by GC Pharma (Green Cross Corporation). Plasma TG and cholesterol were detected with an in vitro enzymatic colorimetric assay (CHOL2 and TRIGL; Roche, Germany) using a Cobas 8000 clinical analyzer with a c702 module (Roche).

5HT1B (h) = target: T1, 5HT1B (h) (Homo sapiens, UniProt P28222); assay: 5HT subtype antagonism assay (Eurofins Cerep): 5HT1B; type: cell-based; settings: concentration not given
T1 construct: host or cells: Hela cells
T1 sequence (P28222 whole entry): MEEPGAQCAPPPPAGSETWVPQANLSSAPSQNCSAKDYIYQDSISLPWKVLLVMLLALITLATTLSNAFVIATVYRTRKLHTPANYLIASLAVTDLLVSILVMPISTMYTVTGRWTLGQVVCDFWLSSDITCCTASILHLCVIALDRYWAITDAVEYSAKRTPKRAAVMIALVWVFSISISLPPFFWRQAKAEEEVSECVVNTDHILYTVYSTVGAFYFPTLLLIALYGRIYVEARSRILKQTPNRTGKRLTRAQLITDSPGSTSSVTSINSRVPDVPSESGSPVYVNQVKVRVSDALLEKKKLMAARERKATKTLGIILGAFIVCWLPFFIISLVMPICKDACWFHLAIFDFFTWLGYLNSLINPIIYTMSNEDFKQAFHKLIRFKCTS
Method: (§1) The derivatives were evaluated at a concentration of 1 μM for their antagonist activity on the 5HT2A receptor (Tables 1–3)[33],[34]. Human 5HT2A stably transfected HEK293 cells (a type of cell derived from kidney embryos)[20] were seeded in a 96-well plate (Costar; 3603) at a density of 9 × 10^4 in 100 μL of minimum essential medium (Welgene; LM007-86) containing 10% dialyzed fetal bovine serum (Gibco; 30067–334) and 1% penicillin/streptomycin (Gibco; 15140-122) and kept in a 37 °C incubator for 24 h. The cells were stained with 100 μL of cytosolic calcium dye using the FLIPR calcium 6 assay solution (Molecular devices, #R8190) supplemented with 2.5 mM probenecid (Sigma; P8761) and incubated for 1 h at 37 °C. After 1 h, the designated amount of the compound was treated in each well and incubated for another 1 h at 37 °C. Then, the cells were loaded in a Flexstation 3 microplate reader (Molecular Devices; FlexStaion) and 50 μL of 5 μM 5HT (serotonin hydrochloride, Sigma; H9523) was injected from a source plate (Nunc 96-well polystyrene conical bottom MicroWell Plate, Thermo; 249662) and the fluorescence intensity (Ex/Em-485nm/ 525 nm) was measured. […]
(§2) Antagonism assay Source Stimulus Incubation Measured Detection Method […]

CYP2C19 = CYP2C19 (Homo sapiens, UniProt P33261); assay: in vitro
Chain of CYP2C19 (P33261 whole entry): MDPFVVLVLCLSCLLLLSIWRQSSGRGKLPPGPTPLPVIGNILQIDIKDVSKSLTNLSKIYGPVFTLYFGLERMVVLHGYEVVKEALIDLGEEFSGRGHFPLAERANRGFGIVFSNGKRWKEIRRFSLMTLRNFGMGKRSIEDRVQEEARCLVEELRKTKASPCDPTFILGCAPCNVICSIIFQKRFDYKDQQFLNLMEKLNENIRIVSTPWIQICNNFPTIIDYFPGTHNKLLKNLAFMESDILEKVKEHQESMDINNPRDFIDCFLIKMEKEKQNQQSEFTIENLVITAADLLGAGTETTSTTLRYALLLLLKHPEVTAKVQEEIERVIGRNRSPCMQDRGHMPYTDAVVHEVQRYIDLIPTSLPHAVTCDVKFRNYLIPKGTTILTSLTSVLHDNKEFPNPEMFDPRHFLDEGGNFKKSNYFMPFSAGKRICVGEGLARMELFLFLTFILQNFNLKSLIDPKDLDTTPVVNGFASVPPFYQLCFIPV

[2] = test system: CDAHFD-fed C57BL/6 J mice; assay: CDAHFD mice (12 weeks): body weight and clinical signs; type: in vivo, mouse; design: Body weight: unit: g; settings: for Body weight, Mean Diff.: Tukey; for Body weight, Mean (one-way ANOVA): mean of 13 weekly values
Source text: C57BL/6 J male mice were purchased from the Japan SLC. Inc (Hamamatsu, Japan). Mice (5 weeks old) were fed Teklad Certitied Irradiated Global 18% protein rodent diet purchased from Dooyeol Biotech Co. Ltd (Seoul, South Korea) during the acclimation period. The liver fibrosis/inflammation-induced groups were CDAHFD-fed (A06071302, Research diet). […] All animal experiments complied with the relevant ethical regulations.

5HT4E (h) = target: T2, 5HT4E (h) (Homo sapiens, UniProt Q13639); assay: 5HT subtype antagonism assay (Eurofins Cerep): 5HT4E; type: cell-based; settings: concentration not given
T2 construct: host or cells: CHO cells
T2 sequence (Q13639 1-378 isoform Q13639-5): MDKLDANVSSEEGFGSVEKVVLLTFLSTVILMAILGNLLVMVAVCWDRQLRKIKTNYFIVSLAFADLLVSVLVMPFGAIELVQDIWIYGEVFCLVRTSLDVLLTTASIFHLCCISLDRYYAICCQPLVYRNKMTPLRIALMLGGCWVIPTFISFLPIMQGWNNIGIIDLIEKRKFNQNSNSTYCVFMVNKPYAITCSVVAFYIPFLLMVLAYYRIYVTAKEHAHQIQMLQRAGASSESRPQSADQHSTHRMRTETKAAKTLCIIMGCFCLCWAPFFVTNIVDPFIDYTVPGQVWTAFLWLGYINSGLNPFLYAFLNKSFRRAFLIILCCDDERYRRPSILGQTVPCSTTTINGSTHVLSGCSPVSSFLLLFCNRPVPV
Method: as §1, §2

HFD-fed C57BL/6J mice [3] = assay: DIO mice: fasting glucose levels; type: in vivo, mouse; settings: PO, in mg/dL (unit assumed)
CYP3A4 = CYP3A4 (Homo sapiens, UniProt P08684); assay: in vitro
Chain of CYP3A4 (P08684 whole entry): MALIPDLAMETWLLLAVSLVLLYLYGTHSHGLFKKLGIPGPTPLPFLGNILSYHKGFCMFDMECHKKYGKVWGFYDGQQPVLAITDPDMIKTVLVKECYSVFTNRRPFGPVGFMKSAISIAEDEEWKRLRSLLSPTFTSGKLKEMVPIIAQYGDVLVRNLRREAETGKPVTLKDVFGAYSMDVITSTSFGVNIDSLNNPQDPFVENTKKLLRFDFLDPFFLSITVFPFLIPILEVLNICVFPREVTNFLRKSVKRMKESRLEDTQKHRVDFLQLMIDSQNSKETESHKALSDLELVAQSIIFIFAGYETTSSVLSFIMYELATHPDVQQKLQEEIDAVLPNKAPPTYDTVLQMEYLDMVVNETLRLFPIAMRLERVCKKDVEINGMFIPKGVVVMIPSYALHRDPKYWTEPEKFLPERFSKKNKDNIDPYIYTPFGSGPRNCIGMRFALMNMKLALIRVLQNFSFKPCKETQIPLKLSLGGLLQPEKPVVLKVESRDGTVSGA

Cc1nc2n(c(=O)c1CCN1CCC(=C3c4ccc(Cl)cc4CCc4cccnc43)CC1)CCCC2O (centres unmarked) [Compound 11c]
Serum TG levels, Mean Diff. (Vehicle vs. treated) (HFD-fed C57BL/6J mice [1]; 5mpk): 32.28 mg/dL | Serum total cholesterol levels, Mean Diff. (Vehicle vs. treated) (HFD-fed C57BL/6J mice [1]; 5mpk): -18.72 mg/dL | Serum TG levels, Mean Diff. (Vehicle vs. treated) (HFD-fed C57BL/6J mice [1]; 10mpk): 36.37 mg/dL | Serum total cholesterol levels, Mean Diff. (Vehicle vs. treated) (HFD-fed C57BL/6J mice [1]; 10mpk): 0.9883 mg/dL | Serum TG levels, group mean (HFD-fed C57BL/6J mice [1]; 5mpk): 71.94 mg/dL | Serum total cholesterol levels (CHO), group mean (HFD-fed C57BL/6J mice [1]; 5mpk, 5 mg/kg): 220.6 mg/dL | Serum TG levels, group mean (HFD-fed C57BL/6J mice [1]; 10mpk): 67.86 mg/dL | Serum total cholesterol levels (CHO), group mean (HFD-fed C57BL/6J mice [1]; 10mpk, 10 mg/kg): 200.9 mg/dL | serum triglyceride levels (HFD-fed C57BL/6J mice [1]; high-fat diet-induced NAFLD mice): significant reduction | Selectivity 1B: % inhibition (5HT1B (h)): 16% | inhibition at 10 µM (CYP2C19): 6.83% | body weight changes among the CDAHFD groups ([2]; 12 weeks): not significantly different | clinical signs during the study period ([2]; CDAHFD mice, 5 and 10 mpk PO daily, 12 weeks): no abnormal clinical signs were observed | Body weight, Average ([2]; CDAHFD+11c 5mpk, week 0, 5 mice): 20.6 g | Body weight ([2]; CDAHFD+11c 5mpk, week 0, individual mouse, in g (unit assumed)): 21.7 and 20.6 and 20.4 and 20.7 and 19.7 | Body weight, Average ([2]; CDAHFD+11c 5mpk, week 1, 5 mice): 20.6 g | Body weight ([2]; CDAHFD+11c 5mpk, week 1, individual mouse, in g (unit assumed)): 21.2 and 20.8 and 20.5 and 20.7 and 19.7 | Body weight, Average ([2]; CDAHFD+11c 5mpk, week 2, 5 mice): 20.1 g | Body weight, Average ([2]; CDAHFD+11c 5mpk, week 3, 5 mice): 19.9 g | Body weight, Average ([2]; CDAHFD+11c 5mpk, week 4, 5 mice): 20.3 g | Body weight, Average ([2]; CDAHFD+11c 5mpk, week 5, 5 mice): 20.5 g | Body weight ([2]; CDAHFD+11c 5mpk, week 5, individual mouse, in g (unit assumed)): 20.8 and 21.2 and 20.5 and 20.2 and 19.9 | Body weight, Average ([2]; CDAHFD+11c 5mpk, week 6, 5 mice): 20.8 g | Body weight ([2]; CDAHFD+11c 5mpk, week 6, individual mouse): 20.9 (2×) and 21.4 and 20.7 and 20.3 | Body weight, Average ([2]; CDAHFD+11c 5mpk, week 7, 5 mice): 21.4 g | Body weight ([2]; CDAHFD+11c 5mpk, week 7, individual mouse): 22.0 (2×) and 21.7 and 21.0 and 20.4 | Body weight, Average ([2]; CDAHFD+11c 5mpk, week 8, 5 mice): 21.6 g | Body weight ([2]; CDAHFD+11c 5mpk, week 8, individual mouse, in g (unit assumed)): 22.3 and 22.1 and 21.9 and 21.5 and 20.3 | Body weight, Average ([2]; CDAHFD+11c 5mpk, week 9, 5 mice): 22.1 g | Body weight ([2]; CDAHFD+11c 5mpk, week 9, individual mouse): 23.0 and 22.4 (2×) and 21.7 and 20.9 | Body weight, Average ([2]; CDAHFD+11c 5mpk, week 10, 5 mice): 22.2 g | Body weight ([2]; CDAHFD+11c 5mpk, week 10, individual mouse, in g (unit assumed)): 23.1 and 22.5 and 22.4 and 22.3 and 20.8 | Body weight, Average ([2]; CDAHFD+11c 5mpk, week 11, 5 mice): 22.5 g | Body weight ([2]; CDAHFD+11c 5mpk, week 11, individual mouse, in g (unit assumed)): 23.6 and 23.2 and 22.9 and 22.3 and 20.7 | Body weight, Average ([2]; CDAHFD+11c 5mpk, week 12, 5 mice): 22.5 g | Body weight ([2]; CDAHFD+11c 5mpk, week 12, individual mouse, in g (unit assumed)): 23.4 and 23.6 and 22.5 and 22.1 and 20.9 | Body weight, Average ([2]; CDAHFD+11c 10mpk, week 0, 5 mice): 20.6 g | Body weight ([2]; CDAHFD+11c 10mpk, week 0, individual mouse): 21.3 (2×) and 20.1 and 20.3 and 20.0 | Body weight, Average ([2]; CDAHFD+11c 10mpk, week 1, 5 mice): 20.4 g | Body weight ([2]; CDAHFD+11c 10mpk, week 1, individual mouse): 20.1 and 19.8 and 20.3 and 20.9 (2×) | Body weight, Average ([2]; CDAHFD+11c 10mpk, week 2, 5 mice): 20.3 g | Body weight, Average ([2]; CDAHFD+11c 10mpk, week 3, 5 mice): 20.3 g | Body weight, Average ([2]; CDAHFD+11c 10mpk, week 4, 5 mice): 20.5 g | Body weight, Average ([2]; CDAHFD+11c 10mpk, week 5, 5 mice): 20.9 g | Body weight ([2]; CDAHFD+11c 10mpk, week 5, individual mouse): 20.9 (2×) and 20.6 and 22.0 and 20.3 | Body weight, Average ([2]; CDAHFD+11c 10mpk, week 6, 5 mice): 21.2 g | Body weight ([2]; CDAHFD+11c 10mpk, week 6, individual mouse, in g (unit assumed)): 21.4 and 20.9 and 22.2 and 20.8 and 20.5 | Body weight, Average ([2]; CDAHFD+11c 10mpk, week 7, 5 mice): 21.5 g | Body weight ([2]; CDAHFD+11c 10mpk, week 7, individual mouse, in g (unit assumed)): 21.9 and 21.0 and 22.3 and 21.1 and 21.2 | Body weight, Average ([2]; CDAHFD+11c 10mpk, week 8, 5 mice): 21.8 g | Body weight ([2]; CDAHFD+11c 10mpk, week 8, individual mouse): 22.0 and 21.2 and 23.0 and 21.4 (2×) | Body weight, Average ([2]; CDAHFD+11c 10mpk, week 9, 5 mice): 21.8 g | Body weight ([2]; CDAHFD+11c 10mpk, week 9, individual mouse, in g (unit assumed)): 22.6 and 21.2 and 22.8 and 21.5 and 21.1 | Body weight, Average ([2]; CDAHFD+11c 10mpk, week 10, 5 mice): 22 g | Body weight ([2]; CDAHFD+11c 10mpk, week 10, individual mouse, in g (unit assumed)): 22.4 and 21.7 and 23.1 and 21.6 and 21.4 | Body weight, Average ([2]; CDAHFD+11c 10mpk, week 11, 5 mice): 22.4 g | Body weight ([2]; CDAHFD+11c 10mpk, week 11, individual mouse): 22.7 and 22.1 (2×) and 23.5 and 21.8 | Body weight, Average ([2]; CDAHFD+11c 10mpk, week 12, 5 mice): 22.5 g | Body weight ([2]; CDAHFD+11c 10mpk, week 12, individual mouse): 22.9 and 22.3 (2×) and 23.3 and 21.6 | Body weight, Mean Diff. ([2]; Column A (Vehicle, no CDAHFD) vs. Column C (11c 5mpk), in g (unit assumed)): 3.52 | Body weight, Mean Diff. ([2]; Column A (Vehicle, no CDAHFD) vs. Column D (11c 10mpk), in g (unit assumed)): 3.44 | Body weight, Mean Diff. ([2]; Column B (CDAHFD+vehicle) vs. Column C (11c 5mpk), in g (unit assumed)): 0.1462 | Body weight, Mean Diff. ([2]; Column B (CDAHFD+vehicle) vs. Column D (11c 10mpk), in g (unit assumed)): 0.06615 | Body weight, Mean Diff. ([2]; Column C (11c 5mpk) vs. Column D (11c 10mpk)): -0.08 | Body weight, Mean (one-way ANOVA) ([2]; Column C (CDAHFD+11c 5mpk), in g (unit assumed)): 21.17 | Body weight, Mean (one-way ANOVA) ([2]; Column D (CDAHFD+11c 10mpk), in g (unit assumed)): 21.25 | Selectivity 4E: % inhibition (5HT4E (h)): -3% | 6hr Fasting Glucose Levels, Average 7W (HFD-fed C57BL/6J mice [3]; 5mpk, group mean): 158.2 | 6hr Fasting Glucose Levels, Average 7W (HFD-fed C57BL/6J mice [3]; 5mpk, individual animals, 5 mg/kg): 172.5 and 172.0 and 150.5 and 154.0 and 119.5 and 188.0 and 151.0 | 6hr Fasting Glucose Levels, Blood Glucose Level (HFD-fed C57BL/6J mice [3]; 5mpk, 2021.03.29, duplicate readings of individual animals, 5 mg/kg): 173.0 and 172.0 and 155.0 and 189.0 and 149.0 and 152.0 and 158.0 and 150.0 and 127.0 and 112.0 and 181.0 and 195.0 and 140.0 and 162.0 | 6hr Fasting Glucose Levels, Average 7W (HFD-fed C57BL/6J mice [3]; 10mpk, group mean): 134.9 | 6hr Fasting Glucose Levels, Average 7W (HFD-fed C57BL/6J mice [3]; 10mpk, individual animals, 10 mg/kg): 116.0 and 126.0 and 147.5 and 160.5 and 170.0 and 89.5 | 6hr Fasting Glucose Levels, Blood Glucose Level (HFD-fed C57BL/6J mice [3]; 10mpk, 2021.03.29, duplicate readings of individual animals, 10 mg/kg): 117.0 and 115.0 and 121.0 and 131.0 and 148.0 and 147.0 and 163.0 and 158.0 and 171.0 and 169.0 and 89.0 and 90.0 | inhibition at 10 µM (CYP3A4): 17.6%
